Values of other authors as cited in US20050148628A1 (priority 2002, published 2005).

Details: in vivo

terminal elimination half-life: 2-3 weeks
Compound: OC(c1cc(C(F)(F)F)nc2c(C(F)(F)F)cccc12)C1CCCCN1 (stereo not shown) [mefloquine]
